# From patent US9486472B2, “Methods for modulating neuronal responses” (UNIVERSITY OF BRITISH COLUMBIA CANADA, priority 2003, dated 2016)
# Columns and labels:
# pp60 c-Src = pp60 c-Src (Homo sapiens, UniProt P12931); assay: In vitro kinase assay with active recombinant Src; type: biochemical; settings: GST fusion protein as substrate
# Text: FIGS. 7 A-D. Insulin increases phosphorylation of tyrosine residues within the GluR2 carboxyl terminal (CT) region. A. In vitro tyrosine phosphorylation of the GluR2 CT. GST fusion proteins of the GluR1 CT (GST-GluR1CT), the GluR2 CT (GST-GluR2CT), residues 869-876 (YKEGYNVYG (SEQ ID NO. 4)) of the GluR2 CT (GST-GluR23Y), which contains a cluster of three tyrosine residues (Y869, Y873, and Y876) and the same amino acid stretch of the GluR2 CT with its tyrosine residues replaced by alanines (GST-GluR23A), along with the GST back bone (GST) as control, were incubated in the absence (−) or presence (+) of active recombinant pp60 c-Src. Phosphorylation products were immunoblotted using an anti-phosphotyrosine antibody (top panel). […] B. Expression levels of HA-GluR2 and HA-GluR23Y-3A (where tyrosines 869, 873 and 876 were mutated to alanines) 48 h after transient transfection into HEK293 cells were determined by a cell ELISA assay using permeabilized cells. C. HEK293 cells transiently transfected with HA-GluR1, HA-GluR2 or HA-GluR23Y-3A, along with empty vector (mock transfection) as control. Forty-eight hours later, the cells were treated with or without 0.5 μM insulin for 10 min. The lysates were then subjected to immunoprecipitation with an anti-HA antibody under denaturing conditions and immunoblotting with an anti-phosphotyrosine antibody (Top blot; IB: PY). […]
# [1] = system: CA1 neurons in hippocampal slices; assay: Insulin-induced depression of AMPA receptor-mediated EPSCs, whole-cell recording of CA1 neurons; type: cell-based, rat; settings: 100 μg/ml in recording pipette; insulin 0.5 μM in bath
# Description: GST-GluR23Y and GST-GluR23A were constructed by subcloning corresponding PCR fragments into pGEX 4T-1 vectors. GST fusion proteins were expressed in DH5α E. coli and purified from bacterial lysates according to the manufacturer's protocol (Pharmacia). Products were dialyzed in PBS and concentrated using Microcon-10 columns (Amicon) for intracellular application during whole-cell recordings.
# Hippocampal slices (400 μm thickness) were prepared from Sprague-Dawley rats aged 16-26 postnatal days and perfused at room temperature with artificial cerebrospinal fluid containing (mM): 126 NaCl, 26 NaHCO3, 10 glucose, 3 KCl, 1.2 KH2PO4, 1 MgCl2, and 1 CaCl2, saturated with 95% O2/5% CO2^14. The recording pipettes (4-5 MO) were filled with solution containing (mM): 135 CsCl, 10 HEPES, 5 QX-314, 4 Mg-ATP, 2 MgCl2, 0.5 EGTA, 0.2 GTP and 0.1 CaCl2, pH 7.4, 310 mOsm. Whole-cell recording of CA1 neurons and the induction of LFS-LTD were performed as previously described.^14 […]
# [2] = system: CA1 neurons in hippocampal slices; assay: LFS-induced hippocampal CA1 long-term depression (LTD); type: cell-based, rat; settings: postsynaptic application, 100 μg/ml; 1 Hz for 15 min
# Description: Hippocampal slices (400 μm thickness) were prepared from Sprague-Dawley rats aged 16-26 postnatal days and perfused at room temperature with artificial cerebrospinal fluid containing (mM): 126 NaCl, 26 NaHCO3, 10 glucose, 3 KCl, 1.2 KH2PO4, 1 MgCl2, and 1 CaCl2, saturated with 95% O2/5% CO2^14. The recording pipettes (4-5 MO) were filled with solution containing (mM): 135 CsCl, 10 HEPES, 5 QX-314, 4 Mg-ATP, 2 MgCl2, 0.5 EGTA, 0.2 GTP and 0.1 CaCl2, pH 7.4, 310 mOsm. Whole-cell recording of CA1 neurons and the induction of LFS-LTD were performed as previously described.^14
# The level of GluR2 tyrosine phosphorylation was assayed following low-frequency stimulation (LFS) of hippocampal slices (1 Hz for 15 min, which reliably induces LTD under our experimental conditions), to determine whether tyrosine phosphorylation of GluR2 CT may be required for LFS-induced long term depression (LTD). Slices were homogenized in denaturing buffer 10 min after the stimulation and GluR subunits were immunoprecipitated and probed for phosphotyrosine. […] Induction of LTD by LFS was blocked by postsynaptic application of GST-GluR23Y (100 μg/ml), but not by the mutant peptide GST-GluR23A (100 μg/ml; FIG. 10B) or by GST-GluR2834-843 (FIG. 10C).
# AMPA receptor [3] = assay: OGD-induced decrease of cell-surface AMPA receptors (Cell-ELISA), cultured cortical neurons; type: cell-based; settings: GluR2CT peptide (1 mM) with PEP-1, one hour before OGD
# Description: (§1) Ischemia-like insult was mimicked by oxygen and glucose deprivation (OGD) for one hour in cultured cortical neurons (DIV 12-14). OGD is a well-characterized cell culture model of ischemia. GluR2CT peptide (1 mM) was delivered into neurons by mixing it with the carrier peptide PEP-1 and incubating neurons with the mixture for one hour before OGD challenge. […] (n=6; *: P<0.05, Student's test, compared with Control).
# AMPA receptor [4] = assay: Cell-ELISA of cell-surface AMPA receptors after NMDA treatment, hippocampal neurons; type: cell-based, rat; settings: 100 μM NMDA + 10 μM glycine 1 h; R2-CT delivered with Pep-1 one hour prior to and during NMDA
# Description: (§2) (DMEM, Gibco) at 37° C. in a humidified atmosphere containing 5% CO2 for 30 min to allow the formation of R2-CT/Pep-1 complex. Hippocampal neurons (DW 12-14) were then overlaid with the preformed complex to reach a final R2-CT concentration of 1 μM and further incubated for 1 h before experiments commenced. Receptor Trafficking Assays
# Cell ELISA assay: Quantification of cell-surface AMPA or NMDA receptors was performed by a colorimetric cell-ELISA assay essentially as described previously^14. Briefly, hippocampal neurons were treated with 100 μM NMDA plus 10 μM glycine for 1 h and then fixed with 4% paraformaldehyde/4% sucrose in PBS for 10 min. Half of the cells in each treatment condition were then permeabilized with 0.1% Triton-X 100 for 5 min. Receptors on the plasma membrane surface and the total cellular pool were then determined by incubating the cells with monoclonal antibodies against the extracellular domains of GluR2 or NR1 (Chemicon, 1 μg/ml) overnight at 4° C., followed by incubation with HRP-conjugated anti-mouse IgG secondary antibody (1:1000, Amersham Life Sciences) for 1 h at room temperature. Following extensive washing with PBS, cells were incubated with OPD substrate (Sigma) for approximately 10 min. Reactions were stopped with 0.2 volumes of 3N HCl, and absorbance at 492 nm was read using a spectrophotometric microplate reader.
# hippocampal neurons = assay: NMDA- or STS-induced apoptosis in cultured hippocampal neurons (Cell Death ELISA, 11-dUTP, PI staining); type: cell-based, rat
# Description: Hippocampi were rapidly removed from embryonic E l 8 Sprague Dawley rats and pooled prior to trituration. Hippocampal cell suspensions were plated onto poly-Dlysine coated culture dishes or glass coverslips and grown in Neurobasal™ media 10 (Invitrogen) for 14 days in vitro (DIV). The media from mature 14 DIV neurons was removed and replaced with 100 μM NMDA plus 10 μM glycine for 1 h at 37° C. prior to restoring neurons to the defined growth media. Twenty four hours after NMDA/glycine application, neurons were processed using cell death assays. NMDA-induced [Ca^2+]i responses were evoked and measured using methods described previously^26.
# Apoptosis quantification: NMDA-induced apoptosis was quantified either using a Cell Death Detection Elisa Plus Kit (Roche Applied Sciences), which is based on the in vitro determination of cytoplasmic histone-associated DNA fragments, or using TdT mediated addition of biotinylated 11-dUTP to the free 3′-OH ends of DNA. Absorbance readings for both assays were carried out using a microplate reader.
# Propidium Iodide (PI) staining of nuclei: After the induction of apoptosis, cells were fixed with 4% parafonnaldehyde/4% sucrose for 10 min followed by ice cold acetone for 1 min, and then stained with […] PI in Dulbecco's PBS for 30 min. Stained coverslips were mounted onto glass slides and viewed with a Leica fluorescence microscope to identify condensed nuclei. Cells with condensed nuclei were counted as apoptotic and the percentage of apoptotic cells to the total number of cells was calculated to give a semi-quantitative analysis, expressed as percentage of apoptosis.
# A short peptide (YKEGYNVYGIE (SEQ ID NO. 2)) corresponding to amino acid residues from 869 to 879 of the C-terminus of GluR2 (R2-CT) was synthesized and incubated with a carrier protein (Pep-1)23 at a ratio of 1:20 in Dulbecco's modified Eagle's medium
# as §2
# [5] = system: cultured cortical neurons; assay: OGD-induced neuronal apoptosis (Cell Death Detection ELISAplus), GluR2-CT with PEP-1; type: cell-based; settings: GluR2CT peptide (1 mM) with PEP-1, one hour before OGD; 24 hr after OGD
# Description: as §1
# [6] = system: AMPA receptor (wild type GluR2); assay: Colorimetric cell-ELISA receptor internalization assay, HEK293 cells expressing GluR2; type: cell-based, rat; settings: insulin 0.5 μM, 10 min; approximately 25% without insulin
# Text: Rat HA-tagged GluR1 and GluR2 receptor subunit cDNAs have been described previously^14. Constructs of HA-GluR2 carboxyl internal deletion or truncation mutants were made by standard PCR methods. The HA-GluR23Y-3A mutant was made using a Quick-Change Site Directed Mutagenesis Kit (Stratagene). HEK293 cells (ATCC) were transfected using the calcium phosphate precipitation method. Thirty six to forty eight hours after transfection, cells were washed with extracellular recording solution (ECS in mM: 140 NaCl, 33 glucose, 25 HEPES, 5.4 KCl, 1.3 CaCl2; pH 7.4, 320 mOsm) and incubated in ECS for at least one hour (serum starvation). […]
# The ability of these mutants to undergo both constitutive and regulated endocytosis was assayed as described previously.^14 Surface receptors in live cells were pre-labelled with an anti-HA antibody (or an antibody against the extracellular N-terminal domain of GluR2 in the case of GluR2Δ854) at 4° C. […] Internalised receptors were then visualised by confocal microscopy and quantitated by colorimetric cell-ELISA-based receptor internalization assays (FIG. 6A). […] Transfected cells were pre-labeled with anti-HA antibody and then receptor endocytosis was evaluated under basal conditions (constitutive endocytosis) or following insulin stimulation (0.5 μM, 10 min; regulated endocytosis). […]
substance,measurement,setting,value
"GSTYKEGYNVYG [GST-GluR23Y, GST fusion protein of the nine amino-acid GluR2 CT stretch with three tyrosines]",tyrosine phosphorylation by recombinant Src kinase,pp60 c-Src,phosphorylated
same,insulin-induced EPSC depression,[1],prevented
same,induction of LTD by LFS,[2],blocked
"YKEGYNVYGIE [R2-CT, short peptide corresponding to amino acid residues 869 to 879 of the C-terminus of GluR2]",OGD-induced decrease in cell-surface AMPA receptor expression,AMPA receptor [3],reduced the OGD-induced decrease in cell-surface AMPA receptor expression
same,NMDA-induced reduction of cell-surface AMPA receptors,AMPA receptor [4],prevented
same,"NMDA-induced apoptosis, peptide or carrier alone",hippocampal neurons; R2-CT alone or Pep-1 alone,neither R2-CT nor Pep-1 alone had any detectable effect
same,STS-induced neuronal apoptosis,"hippocampal neurons; staurosporine 100 nM, 1 h",did not alter STS-induced neuronal apoptosis
same,OGD-induced neuronal death,[5],largely prevented
insulin: human recombinant insulin (Sigma),cell-surface receptors endocytosed within 30 min,[6],48%
